In patent US20250282734A1 (Bayer Aktiengesellschaft, priority 2021, published 2025):
Read-outs that look alike come from different tables or passages of the source. Marks after values point to notes of the source that are not given here.

Legend:
[1] = Solubility free acid vs. salt, shake-flask method (Example 12); assay type: physicochemical
[2] = Determination of exposure in rat after intragastric administration (Example 13); assay type: in vivo; details: for AUC(0-t): female, plasma, po, read-out: AUC(0-tlast); for AUC(0-t) / AUC(0-tlast)norm / AUC(0-tlast): free acid in rat plasma
Procedure: Determination of exposure after intragastric application of test compounds was performed in female conscious rats with a body weight of 0.2 kg (minimum) to 0.25 kg (maximum). The test compounds were applied as bolus via intragastric probe to unfed female rats in solution or suspension in the vehicle ethanol/solutol/water (v/v/v 10/40/50).
At the indicated timepoints between 8 min and 24 h after dosing, 150 μl blood were sampled via a catheter from the vena jugularis. The samples were treated with K-EDTA as anticoagulant and stored cooled until further processing (refrigerator, 4° C.). The samples were centrifuged (15 min, 3000 rpm), then an aliquot of 100 μL was taken from the supernatant (plasma), precipitated by addition of 400 μL cold acetonitrile or methanol (abs.) and frozen at −20° C. over night. The samples were centrifuged (15 min, 3000 rpm), then 150 μL of the clear supernatant were taken for analytical testing. Analytics were performed using an Agilent 1200 HPLC-system with LCMS/MS detection.
The applied dose of cholinate according to the invention was adjusted as compared to free acid according to the difference in molecular weight. The resulting equivalent doses were used for comparison.

[3] = Solubility of cholinate vs free acid and other salts, shake-flask method (Example 14); assay type: physicochemical; details: aqueous solvents, pH 4.5 and above, FeSSIF and FaSSIF
Procedure: (§1) Preparation of FaSSIF (Fasted State Simulated Intestinal Fluid) blank solution: 4.2 g NaOH, 44.7 g NaH2PO4*2 H2O, and 61.86 g NaCl were dissolved in approximately 9.5 L demineralized water. Then, the pH of this solution was adjusted to 6.50+/−0.05 using HCl or NaOH, respectively. In the last step, the final volume was adjusted to 10.0 L by the addition of demineralized water.
Preparation of the final FaSSIF solution: 4.48 g SIF (Simulated Intestinal Fluids) powder (provider: biorelevant.com, Product code: FFF01 (May 2022)) were dissolved in approximately 500 mL FaSSIF blank solution, then the final volume was adjusted to 2.0 L by the addition of FaSSIF blank solution. After 2 hours, the solution was considered to be ready to use and was used within 48 hours.
as §1, with “FeSSIF (Fed” for “FaSSIF (Fasted”, “40.4” for “4.2”, “118.74” for “44.7”, “NaCl,” for “NaH2PO4*2 H2O,”, “82.4 mL glacial acetic acid” for “61.86 g NaCl”, “5.00+/−0.05” for “6.50+/−0.05”
Preparation of the final FeSSIF solution: 22.4 g SIF powder (provider: biorelevant.com, Product code: FFF01 (May 2022)) were dissolved in approximately 500 mL FeSSIF blank solution, then the final volume was adjusted to 2.0 L by the addition of FeSSIF blank solution. The solution was considered to be ready to use immediately after manufacturing and was used within 48 hours.

[4] = Hygroscopy, dynamic vapour sorption (DVS) isotherms (Example 15); assay type: physicochemical; details: for Change in mass [%], Desorption / Change in mass [%], Sorption: listed as Cholinate Form A
Procedure: Water sorption isotherms were determined using a DVS Resolution gravimetric sorption analyzer (London, UK), or a DVS Intrinsic instrument (Surface measurement Systems). The sample was dried for 1000 minutes at 0% relative humidity (R.H.). Afterwards the dry weight was recorded. […] The equilibrium criterion for each relative humidity set point was 0.002% per minute relative mass change as a function of time.

[5] = Dissolution profile, flow through cell in FeSSIF / FaSSIF (Example 16); assay type: physicochemical; details: micronized samples
Procedure: Prior to the measurements, the samples were micronized using a jet mill (MC DECJET 30) under nitrogen, with a pressure of 4.5 Bar for the injector and 4.0 Bar grinding pressure.
Dissolution rates of the drug substance were then determined using a flow through cell (FTC) from Sotax. All experiments were conducted in triplicates.
Then, the respective medium (FaSSIF or FeSSIF) was pumped through the cell with a pump rate of 2 mL/min for a total time of 14 minutes, resulting in a total volume of 28 mL. This volume was collected in time increments of 2 minutes, leading to 7 collected fractions with 4 mL each. The drug substance concentration of each fraction was determined by HPLC (external standard).

[6] = Thermodynamic stability of polymorphic form; assay type: physicochemical

O=C(O)c1cc(NC(=O)C2(c3ccc(C(F)(F)F)cc3F)CC2)ccc1-c1cnn(C2CCC2)c1 [cholinate, 2-hydroxy-N,N,N-trimethylethanaminium 2-(1-cyclobutyl-1H-pyrazol-4-yl)-5-[({1-[2-fluoro-4-(trifluoromethyl)phenyl]cyclopropyl}carbonyl)amino]benzoate]
solubility ([1]; 0.1M HCl, 25 °C, simulated gastric fluid, thermodynamic from solid, 0.1M HCl, 25° C., read-out: Solubility): < 1 µg/mL | solubility ([1]; Acetone, 25° C.): 412 µg/mL | solubility ([1]; Acetonitrile, 25° C.): 3797 µg/mL | solubility ([1]; Ethanol, 25° C.): >12500 µg/mL | solubility ([1]; PEG 400, 25° C.): 19159 µg/mL | solubility ([1]; Phosphate buffer pH 8, 25° C.): 10798 µg/mL | solubility ([1]; Solutol/Ethanol/Water (40/10/50 V/V/V), 25° C.): >35000 µg/mL | solubility ([1]; Water, 25° C., stirred overnight): >12500** mg/L | solubility ([1]; acetate buffer, 25 °C, pH 4.5, aqueous buffer, thermodynamic from solid, Acetate buffer pH 4.5, 25° C., read-out: Solubility): 2 µg/mL | pH of the clear solution ([1]; solubility test in water, pH of water before stirring: 5.57): **pH of the clear solution: 8.32, pH of water before stirring: 5.57 | AUC(0-t) ([2]; rat, 10 mg/kg, dose equiv. 10 mg/kg): 60 µg·h/mL | AUC(0-t) ([2]; rat, 248 mg/kg, dose equiv. 248 mg/kg): 745 µg·h/mL | AUC(0-t) ([2]; rat, 495 mg/kg, dose equiv. 495 mg/kg): 1000 µg·h/mL | AUC(0-tlast)norm ([2]; dose equiv. 10 mg/kg): 6 kg·h/L | AUC(0-tlast) ([2]; dose equiv. 30 mg/kg): 146 µg·h/mL | AUC(0-tlast)norm ([2]; dose equiv. 30 mg/kg): 4.8 kg·h/L | AUC(0-tlast) ([2]; dose equiv. 100 mg/kg): 447 µg·h/mL | AUC(0-tlast)norm ([2]; dose equiv. 100 mg/kg): 4.5 kg·h/L | AUC(0-tlast)norm ([2]; dose equiv. 248 mg/kg): 3 kg·h/L | AUC(0-tlast)norm ([2]; dose equiv. 495 mg/kg): 2 kg·h/L | Increase of plasma exposure of free acid with dose ([2]; rat, doses above 30 mg/kg, listed as cholinate salt): dose-proportional increase of exposure up to a dose of approximately 100 mg/kg | aqueous solubility, comparison in words [3]: higher solubility than the amorphous or partially crystalline salts | Change in mass [%], Desorption ([4]; 0% Relative humidity): −0.14% | Change in mass [%], Sorption ([4]; 0% Relative humidity): 0.00% | Change in mass [%], Desorption ([4]; 10% Relative humidity): 2.50% | Change in mass [%], Sorption ([4]; 10% Relative humidity): 0.36% | Change in mass [%], Desorption ([4]; 20% Relative humidity): 3.59% | Change in mass [%], Sorption ([4]; 20% Relative humidity): 0.56% | Change in mass [%], Desorption ([4]; 30% Relative humidity): 5.08% | Change in mass [%], Sorption ([4]; 30% Relative humidity): 0.75% | Change in mass [%], Desorption ([4]; 40% Relative humidity): 6.98% | Change in mass [%], Sorption ([4]; 40% Relative humidity): 0.95% | Change in mass [%], Desorption ([4]; 50% Relative humidity): 9.30% | Change in mass [%], Sorption ([4]; 50% Relative humidity): 1.21% | Change in mass [%], Desorption ([4]; 60% Relative humidity): 12.14% | Change in mass [%], Sorption ([4]; 60% Relative humidity): 1.61% | Change in mass [%], Desorption ([4]; 70% Relative humidity): 16.02% | Change in mass [%], Sorption ([4]; 70% Relative humidity): 2.11% | Change in mass [%], Desorption ([4]; 80% Relative humidity): 21.87% | Change in mass [%], Sorption ([4]; 80% Relative humidity): 3.05% | Change in mass [%], Desorption ([4]; 90% Relative humidity): 33.33% | Change in mass [%], Sorption ([4]; 90% Relative humidity): 18.30% | Change in mass [%], Desorption ([4]; 95% Relative humidity): 46.21% | Change in mass [%], Sorption ([4]; 95% Relative humidity): 46.21% | Hygroscopicity, comparison in words ([4]; in particular at 30-50% relative humidity): less hygroscopic than the other salts | DVS Dm @ 30% R.H. (Sorption) ([4]; summarized results, 30% R.H.): 0.8% | DVS Dm @ 50% R.H. (Sorption) ([4]; summarized results, 50% R.H.): 1.2% | DVS Dm @ 80% R.H. (Sorption) ([4]; summarized results, 80% R.H.): 3.1% | Dissolution profile, comparison in words [5]: better dissolution profile than the other salts | Thermodynamic stability of the solid form [6]: thermodynamically stable at room temperature and at least up to 35 °C
